Measured values taken from the supplement of paper PMC10949913.

Legend:
Assay in all cases: area under concentration-response curve (viability) (AUC (a.u.)); higher = less active
Settings in all cases: 48 h
[1] = tested on: CU-ACC2
In short: (§1)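 Three adrenocortical carcinoma cell lines were plated in 1,536-well plates at 500–1,000 cells/well in 5 µL medium, and 23 nL of each library compound was added at 11 concentrations. After 48 h, CellTiter-Glo was applied for 15 minutes at room temperature before luminescence was read. Each plate's signals were normalised to vehicle and empty-well controls. AC50 and area under the curve were taken from fitted concentration-response curves, with only inhibitory or non-responding curve classes retained.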

[2] = tested on: CU-ACC1
In short: as §1

[3] = tested on: NCI-H295R
In short: as §1

Row | SMILES | area under concentration-response curve [1] | area under concentration-response curve [2] | area under concentration-response curve [3]
1 | CCC[C@H](N[C@@H](C)C(=O)N1[C@H](C(=O)O)C[C@@H]2CCCC[C@@H]21)C(=O)OCC | 589 | 531 | 548
2 | O=C([O-])C(O)Cc1ccc(O)c(O)c1 (stereo unspecified) | 589 | 460 | 553
3 | CC(=O)OCC(=O)[C@@]12\N=C(C)/O[C@@H]1C[C@H]3[C@@H]4CCC/5=C/C(=O)/C=C\[C@]5(C)[C@H]4[C@@H](O)C[C@]23C | 581 | 483 | 514
4 | Cc1cccc(C)c1NC(=O)CN1CCCC1=O | 544 | 486 | 520
5 | N#CCC1(n2cc(-c3ncnc4[nH]ccc34)cn2)CN(C2CCN(C(=O)c3ccnc(C(F)(F)F)c3F)CC2)C1 | 453 | 460 | 508
6 | N\C1=N\C2=C(N=C[N]2COC(CO)CO)C(=O)N1 | 645 | 567 | 605
7 | COc1ccc2cc([C@H](C)C(=O)O)ccc2c1 | 510 | 503 | 524
8 | CC(C)OC1=C(F)C=C(C=C1)C2=N[N]([C@@H](C)C/3=C(C4=CC(=CC=C4)F)/C(=O)C5=CC(=CC=C5O3)F)C6=C2C(=NC=N6)N | 641 | 516 | 547
9 | CC(Oc1ccc(O)cc1)(P(=O)(O)O)P(=O)(O)O | 508 | 456 | 458
10 | Nc1ncnc2c1ncn2[C@@H]1O[C@H](CO)[C@@H](O)[C@H]1O | 506 | 463 | 470
11 | C[C@H]1C[C@@H]2[C@H](CC[C@@]3(C)[C@H]2CC[C@]3(OC(C)=O)C(C)=O)[C@@]\4(C)CCC(=O)\C=C14 | 618 | 554 | 557
12 | O=C(O)CCCCN(CCc1ccccc1OCc1ccc(CCc2ccccc2)cc1)Cc1ccc(C(=O)O)cc1 | 561 | 471 | 495
13 | COc1ccc(C(=O)N2CCCC2=O)cc1 | 655 | 533 | 573
14 | CCOc1cc(N)c(Cl)cc1C(=O)NCC1CN(Cc2ccc(F)cc2)CCO1 (stereo unspecified) | 538 | 554 | 542
15 | CN[C@@H](C)C(=O)N[C@H]1CN(C(=O)CC(C)C)CC[C@H]2CC[C@@H](C(=O)NC(c3ccccc3)c3ccccc3)N2C1=O | 372 | 338 | 420
16 | CCc1cc(Nc2nccc(-c3c(-c4ccc(OC)c(C(=O)Nc5c(F)cccc5F)c4)nc4ccccn34)n2)c(OC)cc1N1CCC(N2CCN([S+](C)(=O)[O-])CC2)CC1 | 548 | 509 | 485
17 | N/C(=N\OCC(O)CN1CCCCC1)c1cccnc1 (stereo unspecified) | 447 | 415 | 455
18 | CC(C)C[C@@H]1NC(=O)[C@@H](C(C)C)NC(=O)[C@@H]2CCCN2C(=O)[C@@H](CC(=O)O)NC(=O)[C@@H](Cc2c[nH]c3ccccc23)NC1=O | 604 | 489 | 550
19 | CNC[C@H](O)c1cccc(O)c1 | 508 | 440 | 449
20 | CN[C@@H]1Cc2cccc3[nH]c(=O)n(c23)C1 | 659 | 576 | 590
21 | CCCN(CCC)C(=O)C(CCC(=O)O)NC(=O)c1ccccc1 (stereo unspecified) | 570 | 504 | 524
22 | CC1=CC=C(C=C1)\C2=N\C3=CC=C(Cl)C=C3OC2 | 613 | 504 | 546
23 | O=C([C@@H](Cc1cccc(C(F)(F)F)c1)N[S+](=O)([O-])c1cc(F)c2c(c1)CCNC2)N1CCCC1 | 515 | 528 | 535
24 | CC1=C(C)C\2=C(S1)[N]3C(=NN=C3C(CC(N)=O)\N=C2C4=CC=C(Cl)C=C4)C (stereo unspecified) | 480 | 439 | 431

Row | SMILES | area under concentration-response curve [1] | area under concentration-response curve [2] | area under concentration-response curve [3]
25 | CC(NC1=NC=NC2=C1[NH]C=N2)\C3=C\C4=C(C(=CC=C4)Cl)C(=O)N3C5=CC=CC=C5 (stereo unspecified) | 569 | 432 | 580
26 | COc1cc(F)c(C(C)C)cc1-c1ccc(C(F)(F)F)cc1CN1C(=O)O[C@H](c2cc(C(F)(F)F)cc(C(F)(F)F)c2)[C@@H]1C | 505 | 421 | 428
27 | O=C1NC(=O)/C(=C/c2ccc(-c3ccc(F)cc3O)o2)S1 | 611 | 580 | 575
28 | C[C@](Cc1c[nH]c2ccccc12)(NC(=O)OC1C2CC3CC(C2)CC1C3)C(=O)NC[C@H](NC(=O)CCC(=O)O)c1ccccc1 (stereo partly specified) | 582 | 510 | 537
29 | CCc1cccc2c3c([nH]c12)[C@@](CC)(CC(=O)O)OCC3 | 605 | 518 | 525
30 | NC[C@H]1O[C@H](O[C@@H]2[C@H](O)[C@@H](O[C@H]3O[C@H](CO)[C@@H](O)[C@H](N)[C@H]3O)[C@H](N)C[C@@H]2N)[C@H](O)[C@@H](O)[C@@H]1O | 583 | 472 | 520
31 | C=C[C@H]1CN2CCC1C[C@@H]2[C@@H](O)c1ccnc2ccccc12 (stereo partly specified) | 522 | 455 | 486
32 | C[C@H]1COC2=C3N1\C=C(C(O)=O)/C(=O)C3=CC(=C2N4CCN(C)CC4)F | 650 | 522 | 595
33 | C[C@H]1CC[C@H](n2c3cnccc3c3cnc(Nc4ccc5c(n4)CCN(C(=O)CO)C5)nc32)CC1 | 622 | 601 | 596
34 | C#Cc1cccc(Nc2ncnc3cc(OCCOC)c(OCCO)cc23)c1 | 615 | 528 | 541
35 | C1Cc2[nH]nc(-c3nn[nH]n3)c2C1 | 624 | 544 | 514
36 | COC1=C2OC(=O)\C=C/C2=CC3=C1OC=C3 | 482 | 420 | 475
37 | CN1\C(=C(\O)C2=C(C=CS2)[S+]1([O-])=O)C(=O)NC3=CC=CC=N3 | 616 | 548 | 573
38 | O=C(N[C@H]1CN2CCC1CC2)c1ccc(Cl)cc1 | 616 | 495 | 554
39 | CN(N=O)C(=O)N[C@@H]1[C@@H](O)[C@H](O)[C@@H](CO)O[C@@H]1O | 590 | 502 | 548
40 | CCCCC(F)(F)[C@@]1(O)CC[C@H]2[C@@H](CC(=O)[C@@H]2CCCCCCC(=O)O)O1 | 599 | 494 | 541
41 | CC(C)[C@H]1C(=O)N[C@H](CO)Cc2c[nH]c3cccc(c23)N1C | 539 | 384 | 575
42 | CN1[C@@H]2CC(O)C[C@H]1[C@@H]1O[C@@H]12 (stereo partly specified) | 560 | 460 | 496
43 | CC1=CC=C2\N=C/3N(CC[C@@]3(O)C(=O)C2=C1)C4=CC=CC=C4 | 616 | 537 | 552
44 | CC(C)n1cc(-c2ccc3c(c2)N(C)CC3)c2c(N[S+](=O)([O-])c3ccn(C)n3)ccnc21 | 638 | 516 | 568
45 | CCc1nc(N)nc(N)c1-c1ccc(Cl)cc1 | 564 | 483 | 521
46 | N#Cc1ccnc(N2C(=O)CC[C@H]2C(=O)N(c2cncc(F)c2)C(C(=O)NC2CC(F)(F)C2)c2ccccc2Cl)c1 (stereo partly specified) | 602 | 500 | 578
47 | COc1cc2ncn(-c3cc(OCc4ccccc4C(F)(F)F)c(C(N)=O)s3)c2cc1OC | 606 | 515 | 506
